What all share (format): functional
The subject of assay [1] is Malme-3M. Description: Growth inhibition of human MALME-3M cells assessed as cell growth at 3 uM incubated for 48 hrs by sulforhodamine B assay relative to control. Particulars: read-out: Activity. A general note: The SRB assay estimates cell density from bound dye.
A further assay has as its system HCT-116. Description: Growth inhibition of human HCT116 cells assessed as cell growth at 0.003 uM incubated for 48 hrs by sulforhodamine B assay relative to control. Particulars: HCT-116, 48 h, read-out: Activity.
In assay [2] the test system is CAKI-1. Put plainly: Growth inhibition of human Caki1 cells assessed as cell growth at 0.03 uM incubated for 48 hrs by sulforhodamine B assay relative to control. Particulars: CAKI-1, 48 h, read-out: Activity.
Assay [3] relates to SF-268. Description: Growth inhibition of human SF268 cells assessed as cell growth at 0.003 uM incubated for 48 hrs by sulforhodamine B assay relative to control. Conditions: SF-268, 48 h, read-out: Activity.
The test system of a further assay is A498. Description: Growth inhibition of human A498 cells assessed as cell growth at 3 uM incubated for 48 hrs by sulforhodamine B assay relative to control. Conditions: A498, 48 h, read-out: Activity.
A further assay concerns NCI-H522. Description: Growth inhibition of human NCI-H522 cells assessed as cell growth at 30 uM incubated for 48 hrs by sulforhodamine B assay relative to control. Particulars: NCI-H522, 48 h, read-out: Activity.
The next assay deals with HT-29. Description: Growth inhibition of human HT-29 cells assessed as cell growth at 0.003 uM incubated for 48 hrs by sulforhodamine B assay relative to control. Particulars: HT-29, 48 h, read-out: Activity.
Another assay relates to MOLT-4. Put plainly: Growth inhibition of human MOLT4 cells assessed as cell growth at 0.3 uM incubated for 48 hrs by sulforhodamine B assay relative to control. Conditions: MOLT-4, 48 h, read-out: Activity.
Assay [4] deals with OVCAR-4. Put plainly: Growth inhibition of human OVCAR4 cells assessed as cell growth at 30 uM incubated for 48 hrs by sulforhodamine B assay relative to control. Conditions: OVCAR-4, 48 h, read-out: Activity.
For assay [5], the system named is SN12C. Put plainly: Growth inhibition of human SN12C cells assessed as cell growth at 0.003 uM incubated for 48 hrs by sulforhodamine B assay relative to control. Conditions: read-out: Activity.
In a further assay the test system is SNB-19. Description: Growth inhibition of human SNB19 cells assessed as cell growth at 30 uM incubated for 48 hrs by sulforhodamine B assay relative to control. Conditions: SNB-19, 48 h, read-out: Activity.
The subject of the next assay is TK-10. Description: Growth inhibition of human TK10 cells assessed as cell growth at 0.03 uM incubated for 48 hrs by sulforhodamine B assay relative to control. Particulars: TK-10, 48 h, read-out: Activity.
For another assay, the system named is HL-60(TB). Description: Growth inhibition of human HL-60(TB) cells assessed as cell growth at 0.003 uM incubated for 48 hrs by sulforhodamine B assay relative to control. Conditions: HL-60, 48 h, read-out: Activity.
Assay [6] has as its system OVCAR-4. Description: Growth inhibition of human OVCAR4 cells assessed as cell growth at 0.03 uM incubated for 48 hrs by sulforhodamine B assay relative to control. Particulars: OVCAR-4, 48 h, read-out: Activity.
For assay [7], the system named is RXF 393. Put plainly: Growth inhibition of human RXF393 cells assessed as cell growth at 0.003 uM incubated for 48 hrs by sulforhodamine B assay relative to control. Conditions: RXF 393, 48 h, read-out: Activity.
In a further assay the test system is SF-295. Description: Growth inhibition of human SF295 cells assessed as cell growth at 0.3 uM incubated for 48 hrs by sulforhodamine B assay relative to control. Conditions: SF-295, 48 h, read-out: Activity.
In a further assay the test system is NCI-H226. Put plainly: Growth inhibition of human NCI-H226 cells assessed as cell growth at 30 uM incubated for 48 hrs by sulforhodamine B assay relative to control. Conditions: NCI-H226, 48 h, read-out: Activity.
The next assay deals with SF-539. Put plainly: Growth inhibition of human SF539 cells assessed as cell growth at 3 uM incubated for 48 hrs by sulforhodamine B assay relative to control. Conditions: SF-539, 48 h, read-out: Activity.
A further assay has as its system 786-0. Description: Growth inhibition of human 786-0 cells assessed as cell growth at 0.003 uM incubated for 48 hrs by sulforhodamine B assay relative to control. Conditions: 786-0, 48 h, read-out: Activity.
The next assay relates to ACHN. Description: Growth inhibition of human ACHN cells assessed as cell growth at 0.01 uM incubated for 48 hrs by sulforhodamine B assay relative to control. Particulars: read-out: Activity.
Assay [8] concerns RXF 393. Description: Growth inhibition of human RXF393 cells assessed as cell growth at 10 uM incubated for 48 hrs by sulforhodamine B assay relative to control. Conditions: RXF 393, 48 h, read-out: Activity.
Another assay concerns MDA-MB-231. Description: Growth inhibition of human MDA-MB-231 cells assessed as cell growth at 0.01 uM incubated for 48 hrs by sulforhodamine B assay relative to control. Conditions: MDA-MB-231, 48 h, read-out: Activity.
A further assay deals with K562. Put plainly: Growth inhibition of human K562 cells assessed as cell growth at 0.01 uM incubated for 48 hrs by sulforhodamine B assay relative to control. Particulars: K562, 48 h, read-out: Activity.
For assay [9], the system named is HCC 2998. Description: Growth inhibition of human HCC2998 cells assessed as cell growth at 100 uM incubated for 48 hrs by sulforhodamine B assay relative to control. Particulars: HCC 2998, 48 h, read-out: Activity.
The test system of assay [10] is SF-268. Put plainly: Growth inhibition of human SF268 cells assessed as cell growth at 0.01 uM incubated for 48 hrs by sulforhodamine B assay relative to control. Particulars: SF-268, 48 h, read-out: Activity.
For another assay, the system named is EKVX. Put plainly: Growth inhibition of human EKVX cells assessed as cell growth at 10 uM incubated for 48 hrs by sulforhodamine B assay relative to control. Particulars: read-out: Activity.
In another assay the test system is SK-MEL-2. Description: Growth inhibition of human SK-MEL-2 cells assessed as cell growth at 100 uM incubated for 48 hrs by sulforhodamine B assay relative to control. Particulars: SK-MEL-2, 48 h, read-out: Activity.
Another assay has as its system BT-549. Put plainly: Growth inhibition of human BT549 cells assessed as cell growth at 10 uM incubated for 48 hrs by sulforhodamine B assay relative to control. Conditions: BT-549, 48 h, read-out: Activity.
In assay [11] the test system is SN12C. Description: Growth inhibition of human SN12C cells assessed as cell growth at 1 uM incubated for 48 hrs by sulforhodamine B assay relative to control. Conditions: read-out: Activity.
The subject of assay [12] is Malme-3M. Description: Growth inhibition of human MALME-3M cells assessed as cell growth at 1 uM incubated for 48 hrs by sulforhodamine B assay relative to control. Particulars: read-out: Activity.
The subject of another assay is COLO 205. Description: Growth inhibition of human COLO205 cells assessed as cell growth at 0.1 uM incubated for 48 hrs by sulforhodamine B assay relative to control. Conditions: COLO 205, 48 h, read-out: Activity.
The test system of another assay is MDA-MB-435. Description: Growth inhibition of human MDA-MB-435 cells assessed as cell growth at 10 uM incubated for 48 hrs by sulforhodamine B assay relative to control. Particulars: MDA-MB-435, 48 h, read-out: Activity.
In assay [13] the test system is HCC 2998. Description: Growth inhibition of human HCC2998 cells assessed as cell growth at 0.01 uM incubated for 48 hrs by sulforhodamine B assay relative to control. Particulars: HCC 2998, 48 h, read-out: Activity.
The subject of assay [14] is CAKI-1. Put plainly: Growth inhibition of human Caki1 cells assessed as cell growth at 0.01 uM incubated for 48 hrs by sulforhodamine B assay relative to control. Particulars: CAKI-1, 48 h, read-out: Activity.

For the compound `Cc1nc2cc(O)c(O)cc2cc1Oc1ccc(NC(=O)Nc2ccc(Cl)c(Cl)c2)cc1`, the growth at 3 µM in the assay with Malme-3M [1] came out at 94%; in the assay on A498, 79%; in the assay on SF-539 it was 103%. Besides, the growth at 0.003 µM with HCT-116 was 93%; in the assay on SF-268 [3], 100%; with HT-29 it was 103%; with SN12C [5], 100%; with HL-60(TB), 102%; with RXF 393 [7] it was 100%. Moreover, the growth at 0.003 µM in the assay on 786-0 stood at 98%. The growth at 0.03 µM amounted to 94% with CAKI-1 [2], 104% with TK-10 and 98% in the assay with OVCAR-4 [6]. Besides, the growth at 30 µM is -46% in the assay on NCI-H522, 9% in the assay with OVCAR-4 [4], 2% in the assay on SNB-19 and 9% in the assay with NCI-H226. Also, the growth at 0.3 µM in the assay on MOLT-4 stood at 106%; with SF-295, 89%.
For the compound `COc1cc2cc(Oc3ccc(NC(=O)Nc4ccc(Cl)c(C(F)(F)F)c4)cc3)c(C)nc2cc1OC`, the growth at 3 µM with Malme-3M [1] was determined as 12%; in the assay on A498, 1%; in the assay with SF-539, 34%. Besides, the growth at 0.003 µM in the assay on HCT-116 is 100%; in the assay with SF-268 [3], 95%; in the assay on HT-29, 97%; in the assay with SN12C [5], 98%; in the assay with HL-60(TB), 96%; in the assay on RXF 393 [7], 106%. Besides, in the assay with 786-0, the growth at 0.003 µM was found to be 97%. Besides, the results for the growth at 0.03 µM with CAKI-1 [2], with TK-10 and with OVCAR-4 [6] were 96%, 91% and 96%, respectively. Also, the growth at 30 µM in the assay with NCI-H522 is -81%; in the assay with OVCAR-4 [4] it was -62%; in the assay on SNB-19, -87%; with NCI-H226, -49%. The growth at 0.3 µM with MOLT-4 stood at 98%; in the assay on SF-295, 93%.
For the compound `COc1cc2cc(Oc3ccc(NC(=O)Nc4ccc(Cl)c(Cl)c4)cc3)c(C)nc2cc1OC`, the growth at 0.01 µM in the assay with ACHN came out at 101%; in the assay on MDA-MB-231 it was 93%; in the assay with K562, 108%; in the assay on SF-268 [10], 103%; in the assay on HCC 2998 [13], 101%; in the assay on CAKI-1 [14], 88%. Besides, the growth at 10 µM with RXF 393 [8] was 19%; in the assay on EKVX it was -2%; with BT-549 it was 5%; in the assay on MDA-MB-435 it was 13%. Also, the growth at 100 µM in the assay with HCC 2998 [9] is -9%; in the assay on SK-MEL-2, -100%. Also, the growth at 1 µM in the assay on SN12C [11] is 85%; with Malme-3M [12], 109%. Further, the growth at 0.1 µM with COLO 205 came to 107%.
As to `COc1cc2cc(Oc3ccc(NC(=O)Nc4cc(C(F)(F)F)cc(C(F)(F)F)c4)cc3)c(C)nc2cc1OC`, the growth at 0.01 µM in the assay on ACHN turned out to be 94%; with MDA-MB-231, 101%; in the assay on K562, 110%; in the assay with SF-268 [10] it was 97%; with HCC 2998 [13], 99%; with CAKI-1 [14] it was 88%. Also, the growth at 10 µM in the assay with RXF 393 [8] was -44%; in the assay on EKVX it was -55%; in the assay on BT-549, -64%; in the assay on MDA-MB-435 it was -49%. The growth at 100 µM was -92% in the assay with HCC 2998 [9] and -69% in the assay on SK-MEL-2. Moreover, the growth at 1 µM in the assay on SN12C [11] amounted to 35%; in the assay on Malme-3M [12], 54%. For the same compound, in the assay with COLO 205, the growth at 0.1 µM turned out to be 100%.

The values above are taken from ChEMBL document CHEMBL3994622, “Design and synthesis of new RAF kinase-inhibiting antiproliferative quinoline derivatives. Part 2: Diarylurea derivatives” (Eur J Med Chem, 2017).
